Target: CFTR (Homo sapiens, UniProt P13569)
Test: Membrane Potential Dye, Enteroid Assay B
Assay type: cell-based
Settings: Table 9; for EC50: read-out: Ent. B EC50
Method: Base medium (ADF+++) consisted of Advanced DMEM/Ham's F12, 2 mM Glutamax, 10 mM HEPES, […] penicillin/streptomycin.
Bath 1 Buffer consisted of 1 mM MgCl2, 160 mM NaCl, 4.5 mM KCl, 10 mM HEPES, 10 mM Glucose, 2 mM CaCl2).
Chloride Free Buffer consisted of 1 mM Magnesium Gluconate, 2 mM Calcium Gluconate, 4.5 mM Potassium Gluconate, 160 mM Sodium Gluconate, 10 mM HEPES, 10 mM Glucose.
Bath 1 Dye Solution consisted of Bath 1 Buffer, 0.04% Pluronic F127, 20 μM Methyl Oxonol, 30 μM CaCCinh-A01, 30 μM Chicago Sky Blue.
Chloride Free Dye Solution consisted of Chloride Free Buffer, 0.04% Pluronic F127, 20 μM Methyl Oxonol, 30 μM CaCCinh-A01, 30 μM Chicago Sky Blue.
3. Enteroid Cell Harvesting and Seeding
Cells were recovered in cell recovery solution, collected by centrifugation at 650 rpm for 5 min at 4° C., resuspended in TryPLE and incubated for 5 min at 37° C. Cells were then collected by centrifugation at 650 rpm for 5 min at 4° C. and resuspended in IEMM containing 10 μM ROCK inhibitor (RI).
5. Membrane Potential Dye, Enteroid Assay B
Briefly, cells were washed 5 times in Bath 1 Buffer. Bath 1 Dye Solution was added and the cells were incubated for 25 min at room temperature. Following dye incubation, cells were washed 3 times in Chloride Free Dye Solution. Chloride transport was initiated by addition of Chloride Free Dye Stimulation Solution and the fluorescence signal was read for 15 min.

Chain of CFTR (P13569 with tags, fused parts or gaps DEL508-508): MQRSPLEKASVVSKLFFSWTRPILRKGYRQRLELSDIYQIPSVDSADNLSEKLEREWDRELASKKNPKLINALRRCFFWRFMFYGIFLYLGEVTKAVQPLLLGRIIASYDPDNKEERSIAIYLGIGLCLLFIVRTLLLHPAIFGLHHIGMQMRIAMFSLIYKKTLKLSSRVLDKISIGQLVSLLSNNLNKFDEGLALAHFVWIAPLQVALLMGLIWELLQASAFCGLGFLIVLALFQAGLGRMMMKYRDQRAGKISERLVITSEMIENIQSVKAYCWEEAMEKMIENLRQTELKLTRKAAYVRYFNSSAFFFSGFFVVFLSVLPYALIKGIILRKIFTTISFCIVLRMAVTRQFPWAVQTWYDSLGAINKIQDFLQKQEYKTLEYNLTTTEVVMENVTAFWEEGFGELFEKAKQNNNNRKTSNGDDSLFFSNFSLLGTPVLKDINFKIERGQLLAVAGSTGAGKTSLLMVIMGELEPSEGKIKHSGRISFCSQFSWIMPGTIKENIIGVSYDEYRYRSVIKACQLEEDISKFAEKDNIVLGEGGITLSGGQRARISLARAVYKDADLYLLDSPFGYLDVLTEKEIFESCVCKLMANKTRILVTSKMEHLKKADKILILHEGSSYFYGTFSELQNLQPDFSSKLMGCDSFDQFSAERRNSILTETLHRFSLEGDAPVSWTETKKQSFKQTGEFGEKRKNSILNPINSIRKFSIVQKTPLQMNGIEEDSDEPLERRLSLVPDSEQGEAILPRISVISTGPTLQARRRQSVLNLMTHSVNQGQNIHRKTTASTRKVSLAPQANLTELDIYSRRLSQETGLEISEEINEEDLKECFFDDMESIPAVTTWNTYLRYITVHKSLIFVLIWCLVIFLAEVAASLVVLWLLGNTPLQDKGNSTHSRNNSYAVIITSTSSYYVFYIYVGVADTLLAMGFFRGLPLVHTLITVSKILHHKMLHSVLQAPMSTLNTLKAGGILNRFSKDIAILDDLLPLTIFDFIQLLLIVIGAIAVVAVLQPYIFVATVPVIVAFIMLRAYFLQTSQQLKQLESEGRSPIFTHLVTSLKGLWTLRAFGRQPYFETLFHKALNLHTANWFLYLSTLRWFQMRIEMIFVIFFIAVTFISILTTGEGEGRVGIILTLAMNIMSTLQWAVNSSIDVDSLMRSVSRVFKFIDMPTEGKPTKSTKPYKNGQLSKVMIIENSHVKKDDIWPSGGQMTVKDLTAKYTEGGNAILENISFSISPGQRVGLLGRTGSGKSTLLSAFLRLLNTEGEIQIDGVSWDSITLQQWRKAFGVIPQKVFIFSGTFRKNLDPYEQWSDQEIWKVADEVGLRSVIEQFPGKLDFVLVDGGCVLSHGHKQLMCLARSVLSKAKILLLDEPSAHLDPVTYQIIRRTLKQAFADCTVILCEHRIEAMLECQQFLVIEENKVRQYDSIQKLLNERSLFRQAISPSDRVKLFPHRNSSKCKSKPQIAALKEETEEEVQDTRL

Row | Compound | Ent. B Max Activity | EC50
1 | Cc1cccc(C)c1-c1cc2nc(n1)NS(=O)(=O)c1cc(n(C)n1)C(=O)N[C@H](CC(C)(C)C)CO2 [Compound 358] | +++ (+++ is >60%) | < 1 µM
2 | Cc1cccc(C)c1-c1cc2nc(n1)NS(=O)(=O)c1cccc(c1)C(=O)NC[C@H](c1ccc(C[Si](C)(C)C)cc1)O2 (stereo in doubt) [Compound 125] | – | < 1 µM
3 | Cc1cccc(/C=C/C(C)C)c1-c1cc2nc(n1)NS(=O)(=O)c1cccc(c1)C(=O)N[C@H](CC(C)C)CO2 [Compound 390] | +++ (+++ is >60%) | < 1 µM
4 | Cc1cccc(CCC2CC2)c1-c1cc2nc(n1)NS(=O)(=O)c1cccc(c1)C(=O)N[C@H](CC(C)C)CO2 [Compound 391] | +++ (+++ is >60%) | < 1 µM
5 | C=CCCCCC[C@@H]1COc2cc(-c3ccccc3C=C)nc(n2)NS(=O)(=O)c2cccc(c2)C(=O)N1 [Compound 220] | +++ (+++ is >60%) | < 1 µM
6 | Cc1cccc(C)c1-c1cc2nc(n1)NS(=O)(=O)c1cccc(c1)C(=O)N[C@H](C)[C@H](C)O2 [Compound 483] | + (+ is <30%) | 1 to 3 µM
7 | O=C1N[C@@H]2CCCCCC/C=C/c3ccccc3-c3cc(nc(n3)NS(=O)(=O)c3cccc1c3)OC2 [Compound 36, (10E,18R)-30-oxa-26λ^6-thia-19,27,29,32-tetraazapentacyclo[16.11.2.13,28.121,25.04,9]tritriaconta-1,3(32),4(9),5,7,10,21(33),22,24,28-decaene-20,26,26-trione] | +++ (+++ is >60%) | < 1 µM
8 | Cc1cccc(O)c1-c1cc2nc(n1)NS(=O)(=O)c1cccc(c1)C(=O)N[C@H](CC(C)C)CO2 [Compound 163] | ++ (++ is 30-60%) | 3 to 30 µM
9 | Cc1cccc(C)c1-c1cc2nc(n1)NS(=O)(=O)c1cc(no1)C(=O)N[C@H](CC(C)(C)C)CO2 [Compound 357] | ++ (++ is 30-60%) | 1 to 3 µM
10 | Cc1cccc(C)c1-c1cc2nc(n1)NS(=O)(=O)c1cc(n(C)n1)C(=O)N[C@H](C)C(c1ccc(C(C)(C)C)cc1)O2 (stereo in doubt) [Compound 172] | ++ (++ is 30-60%) | < 1 µM
11 | Cc1cccc(C)c1-c1cc2nc(n1)NS(=O)(=O)c1cccc(c1)C(=O)N[C@H](CCC(C)(C)O)CO2 [Compound 67, (11R)-6-(2,6-Dimethylphenyl)-11-(3-hydroxy-3-methylbutyl)-2,2-dioxo-9-oxa-2λ^6-thia-3,5,12,19-tetrazatricyclo[12.3.1.14,8]nonadeca-1(18),4(19),5,7,14,16-hexaen-13-one] | + (+ is <30%) | 3 to 30 µM
12 | Cc1cccc(C)c1-c1cc2nc(n1)NS(=O)(=O)c1cc(nn1C)C(=O)N[C@H](CC(C)(C)C)CO2 [Compound 77, (10R)-15-(2,6-Dimethylphenyl)-10-(2,2-dimethylpropyl)-5-methyl-3,3-dioxo-12-oxa-3λ^6-thia-2,5,6,9,16,17-hexazatricyclo[11.3.1.14,7]octadeca-1(17),4(18),6,13,15-pentaen-8-one] | ++ (++ is 30-60%) | 1 to 3 µM
13 | Cc1cccc(C=C2CCCCC2)c1-c1cc2nc(n1)NS(=O)(=O)c1cccc(c1)C(=O)N[C@H](CC(C)C)CO2 [Compound 388] | ++ (++ is 30-60%) | < 1 µM
14 | O=C1N[C@@H]2CCCCCCc3ccccc3-c3cc(nc(n3)NS(=O)(=O)c3cccc1c3)OC2 [Compound 216] | +++ (+++ is >60%) | < 1 µM
15 | Cc1cccc(C)c1-c1cc2nc(n1)NS(=O)(=O)c1cccc(c1)C(=O)NCC(c1ccc(CCCO)cc1)O2 (stereo not shown) [Compound 122] | +++ (+++ is >60%) | 1 to 3 µM
16 | C=CCCCC[C@@H]1COc2cc(-c3ccccc3C=C)nc(n2)NS(=O)(=O)c2cccc(c2)C(=O)N1 [Compound 221] | +++ (+++ is >60%) | < 1 µM
